Activity calls are given as the source filed them. How the calls were made is not given here.
Biological target: Peptidyl-prolyl cis-trans isomerase FKBP1A (Homo sapiens) (UniProt P62942)
Test: FKBP12 binders, dose response, biochemical, TR-FRET (AID 1963952)
Conditions: FKBP12 binding

Chain of Peptidyl-prolyl cis-trans isomerase FKBP1A (Homo sapiens) (P62942 whole entry, looked up): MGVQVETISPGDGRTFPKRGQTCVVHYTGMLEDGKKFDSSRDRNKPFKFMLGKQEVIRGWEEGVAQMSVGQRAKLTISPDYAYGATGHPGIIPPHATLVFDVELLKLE

SMILES | EC50 [µM] | outcome
CCC(C)(C)C(=O)C(=O)N1CCCC[C@H]1C(=O)N[C@H](CCc1ccc(OC)cc1)C(=O)N1[C@@H]2CC[C@H]1CC(NC(C)=O)C2 (stereo not given in full) | 28.9 | 
CCC(C)(C)C(=O)C(=O)N1CCCC[C@H]1C(=O)N[C@H](CCc1ccc(OC)cc1)C(=O)N1[C@@H]2CC[C@H]1CC(Nc1nc(NCCc3sc(N)nc3C)nc(N3CCn4ncnc4C3)n1)C2 (stereo not given in full) | 29.5 | 
CCC(C)(C)C(=O)C(=O)N1CCCC[C@H]1C(=O)N[C@H](CCc1ccc(OC)cc1)C(=O)N1CC[C@H](Nc2nc(NCCc3sc(N)nc3C)nc(N(C)Cc3nnc4n3CCC4)n2)C1 | 13.3 | 
CC(=O)N1[C@@H]2CC[C@H]1CC(Nc1nc(NCCc3sc(N)nc3C)nc(N3CCn4ncnc4C3)n1)C2 (stereo not given in full) |  | inactive
CCC(C)(C)C(=O)C(=O)N1CCCC[C@H]1C(=O)N[C@H](CCc1ccc(OC)cc1)C(=O)N1[C@@H]2CC[C@H]1CC(Nc1nc(NCCc3sc(N)nc3C)nc(N(C)Cc3nnc4n3CCC4)n1)C2 (stereo not given in full) | 17.9 | 
CCC(C)(C)C(=O)C(=O)N1CCCC[C@H]1C(=O)N[C@H](CCc1ccc(OC)cc1)C(=O)N1[C@@H]2CC[C@H]1CC(Nc1nc(NCCc3sc(N)nc3C)nc(NCc3ccnc(CO)c3)n1)C2 (stereo not given in full) | 36.8 | 
CCC(C)(C)C(=O)C(=O)N1CCCC[C@H]1C(=O)N[C@H](CCc1ccc(OC)cc1)C(=O)N1[C@@H]2CC[C@H]1CC(Nc1nc(NCCc3sc(N)nc3C)nc(NCCn3cnc4ccccc43)n1)C2 (stereo not given in full) | 18.4 | 
CCC(C)(C)C(=O)C(=O)N1CCCC[C@H]1C(=O)N[C@H](CCc1ccc(OC)cc1)C(=O)N1CC(Nc2nc(NCCc3sc(N)nc3C)nc(NCCn3cnc4ccccc43)n2)C1 | 35 | 
CCC(C)(C)C(=O)C(=O)N1CCCC[C@H]1C(=O)O[C@H](CCc1ccccc1)C(=O)N1[C@@H]2CC[C@H]1CC(Nc1nc(NCCc3sc(N)nc3C)nc(N3CCn4ncnc4C3)n1)C2 (stereo not given in full) | 17.1 | 
CCC(C)(C)C(=O)C(=O)N1CCCC[C@H]1C(=O)N[C@H](CCc1ccc(OC)cc1)C(=O)N1[C@@H]2CC[C@H]1CC(Nc1nc(NCCc3ccccc3)nc(N3CCn4ncnc4C3)n1)C2 (stereo not given in full) | 36 | 
